Assay results: the METLIN SMRT retention time set (Domingo-Almenara et al. 2019)

Assay: gradient 5% acetonitrile 3 min, to 50% in 2 min, to 85% in 15 min, held 3 min, 100 µL/min
Details: column: Zorbax Extend-C18 2.1 x 50 mm; eluents: water / acetonitrile, 0.1% formic acid
Method in brief: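 The system's dead and dwell volumes were 40 μL and 900 μL, with a Zorbax Extend-C18 column (2.1 × 50 mm, 1.8 μm) run at 100 μL/min in water and acetonitrile containing 0.1% formic acid each. Pure standards were analyzed in mixtures of ~100 molecules by HPLC–quadrupole time-of-flight mass spectrometry in positive and negative ionization mode. Retention time was assigned from computationally picked, manually inspected adduct peaks.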

Row | Structure (SMILES) | RP-LC retention time [s]
1 | CC(C)n1c(SCC(=O)N2CCCC2)nnc1-c1ccc2c(c1)OCCCO2 | 671
2 | Cc1ccc(C2=NC3(CCN(C(=O)Nc4cccc(C)c4)CC3)NC2=O)cc1 | 851
3 | CNC(=O)C1Cc2ccccc2CN1S(=O)(=O)c1ccc(OC)cc1 (stereo unspecified) | 770
4 | CC(NC(=O)c1ccco1)c1nc(-c2ccc(-c3csc(-c4ccccc4)n3)cc2)no1 (stereo unspecified) | 1200
5 | O=C(C1COc2ccccc2O1)N1CCN(c2cc(-c3ccc(Cl)cc3)[nH]n2)CC1 (stereo unspecified) | 926
6 | O=C(CC1=C2CCCCC2NC1=O)Nc1ccccc1F (stereo unspecified) | 693
7 | CCCC(=O)O[C@]1(C(=O)CO)CC[C@H]2[C@@H]3CCC4=CC(=O)CC[C@]4(C)[C@H]3[C@@H](O)C[C@@]21C | 1010
8 | CCCCn1cc(S(=O)(=O)Nc2ccc(Cl)cc2F)c2cccnc21 | 1020
9 | CCC(C)NS(=O)(=O)c1c(C)nn(-c2ccc(-c3ccc(C)cc3)nn2)c1C (stereo unspecified) | 1040
10 | O=C(NCC1CCOCC1)Nc1ccc(Cl)cc1C(F)(F)F | 846
11 | CC(C)NC(=O)c1ccc(OCC2CCCN(C(=O)c3ccc(C#N)cc3)C2)cc1 (stereo unspecified) | 800
12 | Cc1cn2c(=O)c(S(=O)(=O)N3CCN(c4ccccn4)CC3)c(C)nc2s1 | 601
13 | CC1CCCN(CC2CCN(S(=O)(=O)c3ccc4c(c3)CCC4)CC2)C1 (stereo unspecified) | 719
14 | CNS(=O)(=O)c1c[nH]c(=O)[nH]c1=O | 624
15 | O=C(Cn1c(=O)cc(-c2nc(C3CC3)no2)c2ccccc21)NCc1cccc(Cl)c1 | 979
16 | CCOC(=O)c1noc2nc(C)nc(NCc3ccc(OC)cc3)c12 | 1010
17 | CCOc1ccccc1C1CC(=O)Nc2c(S(=O)(=O)c3ccccc3)csc21 (stereo unspecified) | 1010
18 | O=C(NCC(=O)N1CCOCC1)c1c[nH]c2ccccc12 | 593
19 | COc1ccc(Cl)cc1NC(=O)N1CCc2c(c(-c3nnc(-c4ccc(F)cc4)o3)nn2C)C1 | 993
20 | O=S(=O)(c1cccc(-c2nnc(-c3ccc(F)cc3)o2)c1)N1CCCC1 | 991
21 | COc1ccc(-c2c(C)noc2NC(C)=O)cc1S(=O)(=O)Nc1ccc(F)cc1F | 743
22 | Cc1ccc(Nc2c(-c3c(F)cccc3Cl)nc3ccc(C)cn23)cc1 | 773
23 | CN(CCc1noc(COc2ccc(Cl)cc2)n1)C(=O)Nc1ccc(F)cc1 | 934
24 | Cc1ccc(-c2nnc(Cc3nc(-c4cccnc4)no3)o2)cc1C | 845
25 | O=C(Cn1c(=O)cc(-c2nc(C3CC3)no2)c2ccccc21)NCc1ccc(F)cc1 | 923
26 | Cc1cc(-c2nnc(-c3ccc(F)cc3)o2)c(C)n1CC(=O)NCc1ccccc1 | 920
27 | CN(C)[C@@H]1CN(C(=O)c2ccc(F)c(F)c2)C[C@H]1CO | 531
28 | Cc1ccc(Nc2cc(C)nc(N3CCN(C(=O)Nc4ccc(Cl)cc4)CC3)n2)cc1 | 908
29 | COc1ccc(OCC(=O)N(C)CCc2noc(C3CCCCC3)n2)cc1 | 912

Further lines, results first:

Row | RP-LC retention time [s] | Structure (SMILES)
30 | 885 | O=C(CN1C(=O)CCCc2cc(S(=O)(=O)N3CCCCC3)ccc21)Nc1ccccc1
31 | 812 | O=C1CCCC2=C1C(c1ccccc1Cl)C1=C(CCCC1=O)O2
32 | 1090 | Cc1ccc(NC(=O)Cn2c(C)nc3c(sc4nc(-c5ccccc5)ccc43)c2=O)c(C)c1
33 | 759 | Cc1oc(C2CCN(S(=O)(=O)Cc3ccccc3)CC2)nc1C(=O)N1CCOCC1
34 | 1020 | COc1cccc(-c2nc(Cn3ccn4nc(-c5ccccc5)cc4c3=O)c(C)o2)c1OC
35 | 612 | CS(=O)(=O)N1CCCC(C(=O)Nc2ccc3c(c2)C(=O)NC3=O)C1 (stereo unspecified)
36 | 1150 | Cc1ccccc1-c1nc(C2CCN(S(=O)(=O)c3ccccc3F)CC2)no1
37 | 707 | CCCNc1cc(N2CCCC(CCC(=O)Nc3ccc(OC)cc3OC)C2)ncn1 (stereo unspecified)
38 | 929 | O=c1ccn(-c2ccc(Cl)cc2)nc1-c1nc(-c2ccc(F)cc2)no1
39 | 872 | CCc1ccc(-n2nc(N3CCCC(C(=O)NCc4ccc(OC)cc4OC)C3)ccc2=O)cc1 (stereo unspecified)
40 | 646 | Cc1nn(-c2cc(N3CCCCC3)ncn2)c(C)c1CCC(=O)NCc1ccccn1
41 | 722 | COc1ccc(OC)c(CNC(=O)C2CCCN(c3nnc4c(Cl)cccn34)C2)c1 (stereo unspecified)
42 | 624 | O=C(Nc1ccc(F)cc1)N1CCN(Cc2nc3cccnc3n2-c2ccc(F)cc2)CC1
43 | 1110 | COc1cccc(-c2nc(C3CCN(S(=O)(=O)c4cccc(F)c4)CC3)no2)c1
44 | 828 | Cn1cnc(S(=O)(=O)N2CCC(CCOc3ccccc3F)C2)c1 (stereo unspecified)
45 | 565 | CC(NC(=O)C1CCCN(c2cnc3nccnc3c2)C1)c1ccccn1 (stereo unspecified)
46 | 627 | Cc1cccc(NC(=O)N2CC(Cc3nncn3C(C)C)C2)c1C
47 | 704 | CC(=O)NCc1nc(-c2cccc(-c3csc(C)n3)c2)no1
48 | 842 | CC(CCc1ccccc1)NC(=O)CCC(=O)N1CCCn2nc(-c3cccn3C)cc21 (stereo unspecified)

Row | RP-LC retention time [s] | Structure (SMILES)
49 | 794 | CCOC(=O)c1nc(NC(C)c2ccccc2)c2ccccc2n1 (stereo unspecified)
50 | 628 | COc1ccc(-c2nc3cc(C)ccn3c2NC(=O)CC(C)C)cc1
51 | 569 | Cn1ncc(N2CCC(C(=O)NCc3nc4ccccc4n3C)C2)cc1=O (stereo unspecified)
52 | 809 | COc1cc(OC)c2c(C)cc(=O)oc2c1
53 | 757 | CCN1C(=O)CCc2cc(NC(=O)Cc3cccc(OC)c3)ccc21
54 | 908 | CC1CCN(c2ncc3c(n2)CCC(C(=O)NCc2ccc(OC(C)C)cc2)C3)CC1 (stereo unspecified)
55 | 782 | CCOC(=O)C1C(=O)C(=O)N(C(C)C)C1C(=O)OCC (stereo unspecified)
56 | 660 | Cc1cc(=O)n(CC(=O)NCc2ccccc2Br)c(N2CCOCC2)n1
57 | 951 | COc1ccc(NC(=O)CSc2nnc3c4cc(-c5ccc(Cl)cc5)nn4ccn23)c(OC)c1
58 | 856 | COC(=O)C1=C(C)NC2=C(C(=O)c3ccccc32)C1c1ccc(OC)cc1OC (stereo unspecified)
59 | 766 | O=C(CN1CCN(C(=O)Nc2ccc(Cl)cc2)CC1=O)N1CCN(c2ccc(F)cc2)CC1
60 | 851 | O=c1ccc(N2CCCC(NS(=O)(=O)c3ccc(F)c(F)c3)C2)nn1CC1CC1 (stereo unspecified)
61 | 715 | Cc1ccn(-c2ccc(C(=O)NC(C)C)cn2)n1
62 | 738 | CC1(C)COc2ccc(NC(=O)CN3C(=O)c4ccccc4C3=O)cc2NC1=O
63 | 736 | CCCCN(C)C(=O)c1cn2cc(Cl)ccc2n1
64 | 1100 | CCCN1C(=O)COc2ccc(-c3noc(-c4cccc(NC(=O)c5ccco5)c4)n3)cc21
65 | 824 | CC(=O)N1CCc2cc(-c3ccc(C(=O)NCc4ccc5c(c4)OCO5)cc3)ccc21
66 | 739 | CCc1ccc(OCC(O)Cn2c(C3CC3)nc3ccccc32)cc1 (stereo unspecified)
